# Test results reported in article PMC5218480 (PLoS ONE, 2017).
# System: MV-4-11 cells
# Experiment: Gene expression microarray analysis (Affymetrix PrimeView) and GSEA
# Type: cell-based, human
# Parameters: RFU PODN (11730768_x_at) / Fold change /veh PODN (11730768_x_at) / RFU LINC00158 (11744669_a_at) / Fold change /veh LINC00158 (11744669_a_at) / RFU DUSP10 (11751237_a_at) / Fold change /veh DUSP10 (11751237_a_at) / RFU ID3 (11757404_x_at) / Fold change /veh ID3 (11757404_x_at) / RFU PLEKHG5 (11737974_s_at) / Fold change /veh PLEKHG5 (11737974_s_at) / RFU LRRC4B (11730491_at) / Fold change /veh LRRC4B (11730491_at) / RFU GIMAP4 (11747438_a_at) / Fold change /veh GIMAP4 (11747438_a_at) / RFU KRT8 (11758183_x_at) / Fold change /veh KRT8 (11758183_x_at) / RFU CNN1 (11734310_a_at) / Fold change /veh CNN1 (11734310_a_at) / RFU VPS37D (11726825_at) / Fold change /veh VPS37D (11726825_at) / RFU C10orf10 (11716522_x_at) / Fold change /veh C10orf10 (11716522_x_at) / RFU KIR2DL2 /// KIR2DL4 /// KIR2DL5A /// KIR2DL5B /// KIR2DS1 /// KIR2DS2 /// KIR2DS3 /// KIR2DS4 /// KIR3DL3 /// KIR3DL3 /// KIR3DS1 (11738374_at) / Fold change /veh KIR2DL2 /// KIR2DL4 /// KIR2DL5A /// KIR2DL5B /// KIR2DS1 /// KIR2DS2 /// KIR2DS3 /// KIR2DS4 /// KIR3DL3 /// KIR3DL3 /// KIR3DS1 (11738374_at) / RFU C1QL1 (11718748_at) / Fold change /veh C1QL1 (11718748_at) / RFU TMPRSS4 (11747572_a_at) / Fold change /veh TMPRSS4 (11747572_a_at) / RFU HAMP (11756126_x_at) / Fold change /veh HAMP (11756126_x_at) / RFU RNFT2 (11725882_a_at) / Fold change /veh RNFT2 (11725882_a_at) / RFU NR4A2 (11747474_a_at) / Fold change /veh NR4A2 (11747474_a_at) / RFU ABCC12 (11746883_a_at) / Fold change /veh ABCC12 (11746883_a_at) / RFU TMEM136 (11760407_x_at) / Fold change /veh TMEM136 (11760407_x_at) / RFU CLDN22 /// WWC2 (11732394_at) / Fold change /veh CLDN22 /// WWC2 (11732394_at) / RFU HLA-DPB1 (11760878_x_at) / Fold change /veh HLA-DPB1 (11760878_x_at) / RFU SPINT1 (11716480_a_at) / Fold change /veh SPINT1 (11716480_a_at) / RFU GAP43 (11754022_s_at) / Fold change /veh GAP43 (11754022_s_at) / RFU A4GNT (11735810_at) / Fold change /veh A4GNT (11735810_at) / RFU PRB3 (11715151_x_at) / Fold change /veh PRB3 (11715151_x_at) / RFU TUBB4B (11761932_at) / Fold change /veh TUBB4B (11761932_at) / RFU CAPN14 (11732068_a_at) / Fold change /veh CAPN14 (11732068_a_at) / RFU TMCC2 (11721928_a_at) / Fold change /veh TMCC2 (11721928_a_at) / RFU IRGQ (11745062_a_at) / Fold change /veh IRGQ (11745062_a_at) / RFU FAM174B (11720279_a_at) / Fold change /veh FAM174B (11720279_a_at) / RFU TMPRSS4 (11748680_a_at) / Fold change /veh TMPRSS4 (11748680_a_at) / RFU FAM212B (11763350_a_at) / Fold change /veh FAM212B (11763350_a_at) / RFU PLEKHG5 (11743358_a_at) / Fold change /veh PLEKHG5 (11743358_a_at) / RFU ZSCAN30 (11745921_a_at) / Fold change /veh ZSCAN30 (11745921_a_at) / RFU CMKLR1 (11741424_a_at) / Fold change /veh CMKLR1 (11741424_a_at) / RFU LOC101060620 /// MAPK8IP1 (11723275_at) / Fold change /veh LOC101060620 /// MAPK8IP1 (11723275_at) / RFU SPTSSB (11747773_x_at) / Fold change /veh SPTSSB (11747773_x_at) / RFU PRSS12 (11739890_at) / Fold change /veh PRSS12 (11739890_at) / RFU BIN1 (11741810_x_at) / Fold change /veh BIN1 (11741810_x_at) / RFU WNT11 (11732464_a_at) / Fold change /veh WNT11 (11732464_a_at) / RFU C10orf10 (11716521_a_at) / Fold change /veh C10orf10 (11716521_a_at) / RFU C5orf56 (11738089_at) / Fold change /veh C5orf56 (11738089_at) / RFU CYB561 (11721691_x_at) / Fold change /veh CYB561 (11721691_x_at) / RFU ANKRD19P (11752326_a_at) / Fold change /veh ANKRD19P (11752326_a_at) / RFU OR2T12 /// OR2T33 /// OR2T8 (11738714_s_at) / Fold change /veh OR2T12 /// OR2T33 /// OR2T8 (11738714_s_at) / RFU VCAN (11748164_a_at) / Fold change /veh VCAN (11748164_a_at) / RFU JSRP1 (11732532_at) / Fold change /veh JSRP1 (11732532_at) / RFU KRTAP10-11 (11738290_x_at) / Fold change /veh KRTAP10-11 (11738290_x_at) / RFU MYO3A (11730013_a_at) / Fold change /veh MYO3A (11730013_a_at) / RFU EBF3 (11725865_a_at) / Fold change /veh EBF3 (11725865_a_at) / RFU CAMK2N1 (11719241_x_at) / Fold change /veh CAMK2N1 (11719241_x_at) / RFU C5orf56 (11738088_a_at) / Fold change /veh C5orf56 (11738088_a_at) / RFU OLFML3 (11715873_a_at) / Fold change /veh OLFML3 (11715873_a_at) / RFU LOC100653217 /// NTM (11731650_a_at) / Fold change /veh LOC100653217 /// NTM (11731650_a_at) / RFU MAPK11 (11762145_a_at) / Fold change /veh MAPK11 (11762145_a_at) / RFU FIZ1 (11724087_x_at) / Fold change /veh FIZ1 (11724087_x_at) / RFU OASL (11726364_x_at) / Fold change /veh OASL (11726364_x_at) / RFU SOX15 (11748057_x_at) / Fold change /veh SOX15 (11748057_x_at) / RFU CD79A (11719716_a_at) / Fold change /veh CD79A (11719716_a_at) / RFU HIST1H1D (11736915_at) / Fold change /veh HIST1H1D (11736915_at) / RFU CASKIN2 (11723855_a_at) / Fold change /veh CASKIN2 (11723855_a_at) / RFU LOC730098 (11760151_x_at) / Fold change /veh LOC730098 (11760151_x_at) / RFU OR4N2 (11742367_at) / Fold change /veh OR4N2 (11742367_at) / RFU PRRT2 (11749266_a_at) / Fold change /veh PRRT2 (11749266_a_at) / RFU SNX32 (11753110_a_at) / Fold change /veh SNX32 (11753110_a_at) / RFU CDHR5 (11726645_a_at) / Fold change /veh CDHR5 (11726645_a_at) / RFU RCAN1 (11760418_a_at) / Fold change /veh RCAN1 (11760418_a_at) / RFU FAM167A (11723789_a_at) / Fold change /veh FAM167A (11723789_a_at) / RFU FAM26E (11764081_at) / Fold change /veh FAM26E (11764081_at) / RFU ISYNA1 (11749810_s_at) / Fold change /veh ISYNA1 (11749810_s_at) / RFU ACY1 (11761880_at) / Fold change /veh ACY1 (11761880_at) / RFU 11764098_at / Fold change /veh 11764098_at / RFU SAMD14 (11745864_x_at) / Fold change /veh SAMD14 (11745864_x_at) / RFU NPB (11741838_a_at) / Fold change /veh NPB (11741838_a_at) / RFU TMPRSS6 (11731388_a_at) / Fold change /veh TMPRSS6 (11731388_a_at) / RFU KRTAP10-2 (11738614_at) / Fold change /veh KRTAP10-2 (11738614_at) / RFU ARHGAP8 /// PRR5-ARHGAP8 (11727945_x_at) / Fold change /veh ARHGAP8 /// PRR5-ARHGAP8 (11727945_x_at) / RFU KRTAP5-7 /// NADSYN1 (11734609_at) / Fold change /veh KRTAP5-7 /// NADSYN1 (11734609_at) / RFU RASL12 (11751679_a_at) / Fold change /veh RASL12 (11751679_a_at) / RFU CDKN2B (11736163_a_at) / Fold change /veh CDKN2B (11736163_a_at) / RFU PRF1 (11729649_at) / Fold change /veh PRF1 (11729649_at) / RFU, ZNF638 /// ZNF638-IT1 / Fold change vs veh, ZNF638 /// ZNF638-IT1 / RFU, PANK3 / Fold change vs veh, PANK3 / RFU, SH3YL1 / Fold change vs veh, SH3YL1 / RFU, ZEB2 / Fold change vs veh, ZEB2 / RFU, NRIP1 / Fold change vs veh, NRIP1 / RFU, PTTG1IP / Fold change vs veh, PTTG1IP / RFU, CAPN2 / Fold change vs veh, CAPN2 / RFU, MED14 / Fold change vs veh, MED14 / RFU, SNORA58 / Fold change vs veh, SNORA58 / RFU, C1orf63 / Fold change vs veh, C1orf63 / RFU, LRRFIP1 / Fold change vs veh, LRRFIP1 / RFU, NDUFAF7 / Fold change vs veh, NDUFAF7 / RFU, SLC12A2 / Fold change vs veh, SLC12A2 / RFU, IBTK / Fold change vs veh, IBTK / RFU, ESF1 / Fold change vs veh, ESF1 / Fold change vs veh, TMEM50B / RFU, TAOK1 / Fold change vs veh, TAOK1 / RFU, ACBD3 / Fold change vs veh, ACBD3 / RFU, TMA16 / Fold change vs veh, TMA16 / RFU, RWDD3 / Fold change vs veh, RWDD3 / RFU, BCAT1 / Fold change vs veh, BCAT1 / RFU, EDEM3 / Fold change vs veh, EDEM3 / RFU, TMEM33 / Fold change vs veh, TMEM33 / RFU, WDR75 / Fold change vs veh, WDR75 / RFU, AHCTF1 / Fold change vs veh, AHCTF1 / RFU, TFRC / Fold change vs veh, TFRC / RFU, ZDHHC17 / Fold change vs veh, ZDHHC17 / RFU, NOM1 / Fold change vs veh, NOM1 / RFU, ARL8B / Fold change vs veh, ARL8B / RFU, ZBTB11 / Fold change vs veh, ZBTB11 / RFU, TAMM41 / Fold change vs veh, TAMM41 / RFU, KIAA1704 /// LOC100996395 / Fold change vs veh, KIAA1704 /// LOC100996395 / RFU, ING1 / Fold change vs veh, ING1 / RFU, TRMT61B / Fold change vs veh, TRMT61B / RFU, FUBP3 / Fold change vs veh, FUBP3 / RFU, TP53 / Fold change vs veh, TP53 / RFU, TNKS2 / Fold change vs veh, TNKS2 / RFU, ZFP14 / Fold change vs veh, ZFP14 / RFU, ACTR2 / Fold change vs veh, ACTR2 / RFU, PPP3R1 / Fold change vs veh, PPP3R1 / RFU, PIK3R1 / Fold change vs veh, PIK3R1 / RFU, HNRNPA1 / Fold change vs veh, HNRNPA1 / RFU, RNF170 / Fold change vs veh, RNF170 / RFU, ZNF28 / Fold change vs veh, ZNF28 / RFU, RNGTT / Fold change vs veh, RNGTT / RFU, OGT / Fold change vs veh, OGT / RFU, BRD1 / Fold change vs veh, BRD1 / RFU, MARS / Fold change vs veh, MARS / RFU, ZNF655 / Fold change vs veh, ZNF655 / RFU, FAHD1 / Fold change vs veh, FAHD1 / RFU, BDP1 / Fold change vs veh, BDP1 / RFU, LRRCC1 / Fold change vs veh, LRRCC1 / RFU, ARID1A / Fold change vs veh, ARID1A / RFU, ZNF146 / Fold change vs veh, ZNF146 / RFU, ZNF330 / Fold change vs veh, ZNF330 / RFU, GPN3 / Fold change vs veh, GPN3 / RFU, C9orf123 / Fold change vs veh, C9orf123 / RFU, N4BP2L2 / Fold change vs veh, N4BP2L2 / RFU, ARFIP1 / Fold change vs veh, ARFIP1 / RFU, FAM179B / Fold change vs veh, FAM179B / RFU, BCL10 / Fold change vs veh, BCL10 / RFU, UHRF1BP1L / Fold change vs veh, UHRF1BP1L / RFU, BET1 / Fold change vs veh, BET1 / RFU, CNOT2 / Fold change vs veh, CNOT2 / RFU, ZNF268 / Fold change vs veh, ZNF268 / Fold change vs veh, ZNF507 / RFU, DGCR2 / Fold change vs veh, DGCR2 / RFU, WDSUB1 / Fold change vs veh, WDSUB1 / Fold change vs veh, HSP90B1 /// MIR3652 / RFU, ADSS / Fold change vs veh, ADSS / RFU, GK / Fold change vs veh, GK / RFU, ZNF148 / Fold change vs veh, ZNF148 / RFU, TAF9 / Fold change vs veh, TAF9 / RFU, SLC1A5 / Fold change vs veh, SLC1A5 / RFU, SLMO2 / Fold change vs veh, SLMO2 / RFU, ABCC4 / Fold change vs veh, ABCC4 / RFU, LOC101060439 /// RAP1B / Fold change vs veh, LOC101060439 /// RAP1B / RFU, RFX7 / Fold change vs veh, RFX7 / RFU, GTPBP10 / Fold change vs veh, GTPBP10 / RFU, CNEP1R1 / Fold change vs veh, CNEP1R1 / RFU, BIVM-ERCC5 /// ERCC5 / Fold change vs veh, BIVM-ERCC5 /// ERCC5 / RFU, ILF3 / Fold change vs veh, ILF3 / RFU 11762660_at / Fold change /veh 11762660_at / RFU VCAN (11757783_s_at) / Fold change /veh VCAN (11757783_s_at) / RFU DDX43 (11728927_at) / Fold change /veh DDX43 (11728927_at) / RFU KRT8 (11758188_x_at) / Fold change /veh KRT8 (11758188_x_at) / RFU NKD1 (11759106_at) / Fold change /veh NKD1 (11759106_at) / RFU SRD5A1 (11742802_a_at) / Fold change /veh SRD5A1 (11742802_a_at) / RFU TPSAB1 /// TPSB2 (11721975_s_at) / Fold change /veh TPSAB1 /// TPSB2 (11721975_s_at) / RFU GSTM3 (11746129_a_at) / Fold change /veh GSTM3 (11746129_a_at) / RFU IL23R (11737362_x_at) / Fold change /veh IL23R (11737362_x_at) / RFU TMEM51 (11727254_a_at) / Fold change /veh TMEM51 (11727254_a_at) / RFU PIWIL2 (11732686_x_at) / Fold change /veh PIWIL2 (11732686_x_at) / RFU ORM1 (11744905_x_at) / Fold change /veh ORM1 (11744905_x_at) / RFU CCDC152 (11743942_at) / Fold change /veh CCDC152 (11743942_at) / RFU ECM1 (11717891_a_at) / Fold change /veh ECM1 (11717891_a_at) / RFU IL23R (11748794_a_at) / Fold change /veh IL23R (11748794_a_at) / RFU TNFAIP8L3 (11732012_x_at) / Fold change /veh TNFAIP8L3 (11732012_x_at) / RFU MBOAT4 (11741988_at) / Fold change /veh MBOAT4 (11741988_at) / RFU 11764193_at / Fold change /veh 11764193_at / RFU TMEM53 (11763286_at) / Fold change /veh TMEM53 (11763286_at) / RFU MAGEB2 (11727129_at) / Fold change /veh MAGEB2 (11727129_at) / RFU TMEM200A (11744735_a_at) / Fold change /veh TMEM200A (11744735_a_at) / RFU CCDC152 (11751479_a_at) / Fold change /veh CCDC152 (11751479_a_at) / RFU FAM211A (11726209_a_at) / Fold change /veh FAM211A (11726209_a_at) / RFU RGS16 (11746705_a_at) / Fold change /veh RGS16 (11746705_a_at) / RFU VCAN (11755009_s_at) / Fold change /veh VCAN (11755009_s_at) / RFU RHOB (11743442_s_at) / Fold change /veh RHOB (11743442_s_at) / RFU RGS16 (11720943_a_at) / Fold change /veh RGS16 (11720943_a_at) / RFU RGS16 (11720944_at) / Fold change /veh RGS16 (11720944_at) / RFU, VPS4B / Fold change vs veh, VPS4B / RFU, CREB1 / Fold change vs veh, CREB1 / RFU, DNAJC13 / Fold change vs veh, DNAJC13 / RFU, GNAQ / Fold change vs veh, GNAQ / RFU, CDK5R1 / Fold change vs veh, CDK5R1 / RFU, ZRANB3 / Fold change vs veh, ZRANB3 / RFU, CUL4A / Fold change vs veh, CUL4A / RFU, CCNY / Fold change vs veh, CCNY / RFU, UFL1 / Fold change vs veh, UFL1 / RFU, COG3 / Fold change vs veh, COG3 / RFU, DIAPH2 / Fold change vs veh, DIAPH2 / RFU, SKA2 / Fold change vs veh, SKA2 / RFU, AFF3 / Fold change vs veh, AFF3 / RFU, LMF1 / Fold change vs veh, LMF1 / RFU, IPO11 / Fold change vs veh, IPO11 / RFU, DFFB / Fold change vs veh, DFFB / RFU, FOXP1 / Fold change vs veh, FOXP1 / RFU, CARD8 / Fold change vs veh, CARD8 / RFU, STRN3 / Fold change vs veh, STRN3 / RFU, ADK / Fold change vs veh, ADK / RFU, RASSF2 / Fold change vs veh, RASSF2 / RFU, WIPF1 / Fold change vs veh, WIPF1 / RFU, LARP1B / Fold change vs veh, LARP1B / RFU, RASA1 / Fold change vs veh, RASA1 / RFU, RB1 / Fold change vs veh, RB1 / RFU, PPFIA1 / Fold change vs veh, PPFIA1 / RFU, MAT2A / Fold change vs veh, MAT2A / RFU, CCT5 / Fold change vs veh, CCT5 / RFU, WDR92 / Fold change vs veh, WDR92 / RFU, CUX1 / Fold change vs veh, CUX1 / RFU, TTC7A / Fold change vs veh, TTC7A / RFU, TMEM135 / Fold change vs veh, TMEM135 / RFU, DEPTOR / Fold change vs veh, DEPTOR / RFU, CPM / Fold change vs veh, CPM / RFU, DNAJB6 / Fold change vs veh, DNAJB6 / RFU, CACNA2D3 / Fold change vs veh, CACNA2D3 / RFU, DTX4 / Fold change vs veh, DTX4 / RFU, TFCP2 / Fold change vs veh, TFCP2 / RFU, GMCL1 /// GMCL1P1 / Fold change vs veh, GMCL1 /// GMCL1P1 / RFU, AEBP2 / Fold change vs veh, AEBP2 / RFU, SNHG1 /// SNORD22 /// SNORD25 /// SNORD26 /// SNORD27 /// SNORD28 /// SNORD29 /// SNORD31 / Fold change vs veh, SNHG1 /// SNORD22 /// SNORD25 /// SNORD26 /// SNORD27 /// SNORD28 /// SNORD29 /// SNORD31 / Fold change (Aza/veh), C12orf56 (ProbeSet 11735607_a_at) / Fold change (ACY-1035/veh), C12orf56 (ProbeSet 11735607_a_at) / Fold change (Aza/veh), FGFR1OP (ProbeSet 11751329_s_at) / Fold change (ACY-1035/veh), FGFR1OP (ProbeSet 11751329_s_at) / Fold change (Aza/veh), VPS36 (ProbeSet 11739960_a_at) / Fold change (ACY-1035/veh), VPS36 (ProbeSet 11739960_a_at) / RFU SYPL1 (11715823_x_at) / Fold change /veh SYPL1 (11715823_x_at) / RFU IGFBP7 (11715501_s_at) / Fold change /veh IGFBP7 (11715501_s_at) / RFU REEP3 (11722064_at) / Fold change /veh REEP3 (11722064_at) / RFU IGLL1 (11728026_x_at) / Fold change /veh IGLL1 (11728026_x_at): dose or concentration left out as unconfirmed
# Settings: MV-4-11 cells, 48 hours
structure (smiles),measurement,value
Nc1ccc(-c2cccs2)cc1NC(=O)c1ccc2c(c1)cc(C1CC1)n2CCN1CCOCC1 [ACY-1035],RFU ARHGAP8 /// PRR5-ARHGAP8 (11727945_x_at),101.90 RFU
